The subject of the experiment is HRV2-2A. In kind it is biochemical. As to conditions: for Spaltung des Peptidsubstrats in trans durch HRV2-2A: 30 min 37°C.

Take “TRPIITTYGPSDMYVH [Peptid K, Peptidsubstrat mit Spaltsignal Tyr/Gly statt Ala/Gly]”: the “Spaltung des Peptidsubstrats” value was 100%, the “Spaltung des Peptidsubstrats durch HRV2-2A in Anwesenheit von 2,5 M NaCl” value was “vollständige Spaltung” and the “Spaltung des Peptidsubstrats in trans durch HRV2-2A” value is “mit der gleichen Effizienz wie die nativen Peptidsubstrate vergleichbarer Länge von HRV2-2A gespalten”.

Regarding “Ac-TRPIITTAGPSDMYVH-NH2 [Peptid H, Ac-TRPIITTAGPSDMYVH-NH₂]”, the “Spaltung des Peptidsubstrats in trans durch HRV2-2A” value was “spezifisch zwischen Alanin und Glycin”.
